Test system: Canton-S flies
Experiment: Geotaxis maze assay of Drosophila
Format: in vivo, Drosophila melanogaster
Experimental: These strains and a standard laboratory wild-type strain (Canton-S, obtained from the Bloomington Drosophila Stock Center, Indiana University at Bloomington) were then tested in a geotaxis maze constructed according to the design of Hirsch (J. Comp. Physiol. Psychol. 52:304-308 (1959)) as modified by McMillan and McGuire (Behav. Genet. 22:557-573 (1992)), shown in FIG. 1. The geotaxis maze was fashioned from plexiglass and the maze chambers were hollowed out as semi-circular depressions in the slab, such that when the two slabs were bolted together a circular tube was formed in maze. This design thus made it possible to observe the entire time course of the assay. Additionally, this maze is easy to clean and standardize. For each strain, a geotaxis score was determined. In separate measurements, twenty to thirty flies of each strain were loaded into a starting tube on the left (see FIG. 1). The maze was set upright in front of a light source on the right, and, after turning on the light, each strain was scored according to the distribution of the flies in the nine collecting tubes on the right. A perfect score for positive geotaxis would be 1, for negative geotaxis, 9, and for an even distribution, 5. The geotaxis measurments were repeated 3-5 times for each strain (see Table 1). […]

OCCOCCN1CCN(C(c2ccccc2)c2ccc(Cl)cc2)CC1 (centres unmarked) [hydroxyzine]
Effect on geotactic behavior (in words) (Canton-S flies fed with the histamine receptor antagonist): Extreme negative geotaxis is induced | Geotaxis score (wild-type Canton-S flies fed for 2 hr on 20 mg/ml hydroxyzine, score scale 1 = positive geotaxis, 5 = even distribution, 9 = negative geotaxis, N=1 (15-25 flies), untreated Canton-S 5.53): 8.50

Source: patent US7378080B2, “Methods for identifying compounds for motion sickness, vertigo and other disorders related to balance and the perception of gravity” (Neurosciences Research Foundation, Inc., priority 1999, dated 2008)
